As a reminder, the viability is a read-out of living cells in per cent, often relative to untreated cells.

This series can be described thus: in vitro. The following applies: human, hela cells, % viability.

Regarding `CCOc1ncccc1C(=O)OCc1cc2ccc(OC)cc2nc1Cl` [CBK295289], the viability at 28.5 h, 10 µM came out at 78.1%.
In the case of `O=C(NCC1CCCO1)C1CCN(C(=O)c2cccc(F)c2)CC1` (centres unmarked) [CBK304633] it was 90.5%; in that of `CN(C)C(=O)CSc1cnc2ccccc2n1` [CBK086626], 86.3%.
In the case of `O=[N+]([O-])c1cccc(-c2noc([C@@H]3C[C@@H](O)CN3C3CCOCC3)n2)c1` [CBK288847] it was 101%; in that of `CCCc1nnc(SCC(=O)Nc2ccc(CN3CCOCC3)cc2)[nH]1` [CBK305583], 82.4%; in that of `COc1ccc(CNc2cnc3ccccc3c2)c(O)c1` [CBK293951], 87.5%.
Turning to `Cc1nc(C2CN(Cc3ccc(Cl)c4cccnc34)CCO2)no1` (centres unmarked) [CBK305384], the viability at 28.5 h, 10 µM turned out to be 102%.
On to `O=C(Cn1cc(-c2ccc(CN3CCCCC3)cc2)nn1)NCc1ccc(C2CCC2)cc1` [CBK167547], for which the viability at 28.5 h, 10 µM worked out at 86.6%.
In the case of `CSc1ccc(CNC(=O)c2sc3nc(C)nc(N4CCCC4)c3c2C)cc1` [CBK294432] it was 96.8%; in that of `O=C(Oc1ccc2c(=O)c(Oc3ccc(-c4ccccc4)cc3)coc2c1)c1cccnc1` [CBK264479], 97.6%; in that of `CCC(=O)NC(c1ccc(C)cc1)c1cc([N+](=O)[O-])c2cccnc2c1O` (centres unmarked) [CBK265048], 121%.
In the case of `COc1cc(CNCc2cccnc2)cc(Cl)c1OCc1cccs1` [CBK270026C] it was 96.2%; in that of `O=C(Nc1cc(Cl)ccc1Cl)c1ncn[nH]1` [CBK028834], 92.9%.
In the case of `O=S(=O)(Cc1ccc(Br)cc1F)c1ccccn1` [CBK019368], the viability at 28.5 h, 10 µM turned out to be 90.4%.
Turning to `Cc1cc(C)n(CC(=O)NC(CC(=O)O)c2ccccc2Cl)n1` (centres unmarked) [CBK305695], the viability at 28.5 h, 10 µM worked out at 106%.
In the case of `Cn1c2ccccc2c2ncn(CCS)c(=O)c21` [CBK288412] it was 114%; in that of `COc1cccc(OC)c1-c1cn2ccnc2c(NC2CC2)n1` [CBK038020], 104%; in that of `CCCc1ccc(S(=O)(=O)Nc2nc(C)c(C(=O)O)s2)cc1` [CBK045555], 88.3%.
As for `FC(F)(F)c1cccc(OCc2nnn[nH]2)c1` [CBK269466], the figure is 88.4%; as for `O=C(c1ccco1)N1CCCC(n2cnc3cc(F)ccc32)C1` (centres unmarked) [CBK284475], 94.8%; as for `Cc1ccccc1NC(=O)c1c(NC(=O)Cc2ccccc2)sc2c1CCCC2` [CBK262572], 108%.
As to `O=C(O)C1C2C=CC(C2)C1C(=O)NCc1ccncc1` (centres unmarked) [CBK265403], the viability at 28.5 h, 10 µM came out at 102%.
Take `O=C(O)/C=C/c1cccc(-c2cn3ccnc3c(NCc3cccnc3)n2)c1` [CBK066283]: the viability at 28.5 h, 10 µM came to 98.8%.
As to `COc1ccc(N(C(C)C(=O)Nc2ccc(Cl)c(Cl)c2)S(C)(=O)=O)cc1` (centres unmarked) [CBK266872], the viability at 28.5 h, 10 µM amounted to 114%.
As for `Cc1c(C(=O)O)sc2ncn(CCOc3ccc(Cl)cc3)c(=O)c12` [CBK286808], the figure is 88.5%; as for `COc1ccc(C(=O)C2=C(O)C(=O)N(CCCN(C)C)C2c2ccncc2)cc1C` (centres unmarked) [CBK264871], 102%; as for `COCCCn1c(=O)[nH]c2ncc(-c3ccc(O)cc3)nc21` [CBK064425], 93.6%.
As for `CSc1nc(NC(=O)c2ccoc2)cc(N2CCNCC2)n1` [CBK050314T], the figure is 88.9%; as for `O=C(NC(c1ccccc1)c1ccccc1)C1(c2ccccc2)CCCC1` [CBK149536], 96.8%.
In the case of `Cc1cc(-c2ccc(=O)n(CCNC(=O)c3cccs3)n2)c(C)o1` [CBK284461] it was 92.3%; in that of `CN1CCN(c2nc3c([nH]2)c(=O)n(C)c(=O)n3C)CC1` [CBK269976], 86.1%; in that of `O=C(O)CSc1nc2ccc([N+](=O)[O-])cc2[nH]1` [CBK265192], 86.9%.
